Experimental data reported in publication PMC6761534 (Antimicrobial Agents and Chemotherapy, 2019).

Columns and labels:
Format in all cases: cell-based, Mycobacterium tuberculosis
[1] = test system: M. tuberculosis c subunit mutant strain A63P
M. tuberculosis H37Rv = test system: M. tuberculosis H37Rv
[2] = test system: M. tuberculosis c subunit mutant strain D28G
[3] = test system: M. tuberculosis c subunit mutant strain D28V
[4] = test system: M. tuberculosis c subunit mutant strain E61D
[5] = test system: M. tuberculosis c subunit mutant strain D28A
[6] = test system: M. tuberculosis c subunit mutant strain I66M

Row | Compound | MIC90 fold increase in M. tuberculosis c subunit mutant strain A63P [1] [fold] | Mutation frequency (M. tuberculosis H37Rv) | No. of atpE mutants/total no. of mutants isolated (M. tuberculosis H37Rv) | MIC90 fold increase in M. tuberculosis c subunit mutant strain D28G [2] [fold] | MIC90 fold increase in M. tuberculosis c subunit mutant strain D28V [3] [fold] | MIC90 fold increase in M. tuberculosis c subunit mutant strain E61D [4] [fold] | MIC90 fold increase in M. tuberculosis c subunit mutant strain D28A [5] [fold] | MIC90 fold increase in M. tuberculosis c subunit mutant strain I66M [6] [fold]
1 | COc1cc([C@](O)(CCN(C)C)[C@@H](c2cc3cc(Br)ccc3nc2OC)c2ccnc(OC)c2OC)cc(OC)n1 [compound 5307] | 150 | 3.00 × 10^−8 | 33/34 | 235 | 360 | 100 | 357 | 87
2 | COc1cc([C@](O)(CCN(C)C)[C@@H](c2cc3cc(Br)ccc3nc2OC)c2cccc3c2OCCO3)cc(OC)n1 [compound 5316] | 72 | 6.36 × 10^−9 | 7/7 | 200 | 200 | 105 | 200 | 42
3 | COc1cc([C@](O)(CCN(C)C)[C@@H](c2cc3cc(Br)ccc3nc2OC)c2cc(OC)nc(OC)c2OC)cc(OC)n1 [TBAJ-876] | 48 | 4.23 × 10^−9 | 5/5 | 104 | 132 | 100 | 140 | 59
4 | COc1cc([C@](O)(CCN(C)C)[C@H](c2cc(OC(C)C)cnc2OC)c2cc3cc(Br)ccc3nc2OC)cc(OC)n1 [compound 5366] | 50 | 2.54 × 10^−8 | 28/28 | 300 | 250 | 45 | 333 | 50
5 | COc1nc2ccc(Br)cc2cc1[C@@H](c1ccccc1)[C@@](O)(CCN(C)C)c1cccc2ccccc12 [BDQ, Bedaquiline, reference compound] | >400 |  |  | >400 | >400 | 312 | >400 | 262
